# Data: US20240351994A1, “MAXI-K POTASSIUM CHANNEL OPENERS FOR THE TREATMENT OF FRAGILE X ASSOCIATED DISORDERS” (Kaerus Bioscience Limited, priority 2020, published 2024)
# How the values were obtained:
# [1] = single intraperitoneal (IP) injection of 2 mg/kg; cited from earlier work
# [2] = target: T1, BK channels (HEK-293 cell line expressing functional alpha subunits of BK channels) (Homo sapiens, UniProt Q12791); assay: Whole-cell patch clamp assay of BK channel stimulatory activity; assay type: cell-based; details: 3 μM, percentage of control, stably transfected HEK-293 cells
# T1 construct: expressed in transfected cells; host or cells: HEK-293 (stably transfected; geneticin and blasticidin selection)
# T1 sequence (Q12791 whole entry): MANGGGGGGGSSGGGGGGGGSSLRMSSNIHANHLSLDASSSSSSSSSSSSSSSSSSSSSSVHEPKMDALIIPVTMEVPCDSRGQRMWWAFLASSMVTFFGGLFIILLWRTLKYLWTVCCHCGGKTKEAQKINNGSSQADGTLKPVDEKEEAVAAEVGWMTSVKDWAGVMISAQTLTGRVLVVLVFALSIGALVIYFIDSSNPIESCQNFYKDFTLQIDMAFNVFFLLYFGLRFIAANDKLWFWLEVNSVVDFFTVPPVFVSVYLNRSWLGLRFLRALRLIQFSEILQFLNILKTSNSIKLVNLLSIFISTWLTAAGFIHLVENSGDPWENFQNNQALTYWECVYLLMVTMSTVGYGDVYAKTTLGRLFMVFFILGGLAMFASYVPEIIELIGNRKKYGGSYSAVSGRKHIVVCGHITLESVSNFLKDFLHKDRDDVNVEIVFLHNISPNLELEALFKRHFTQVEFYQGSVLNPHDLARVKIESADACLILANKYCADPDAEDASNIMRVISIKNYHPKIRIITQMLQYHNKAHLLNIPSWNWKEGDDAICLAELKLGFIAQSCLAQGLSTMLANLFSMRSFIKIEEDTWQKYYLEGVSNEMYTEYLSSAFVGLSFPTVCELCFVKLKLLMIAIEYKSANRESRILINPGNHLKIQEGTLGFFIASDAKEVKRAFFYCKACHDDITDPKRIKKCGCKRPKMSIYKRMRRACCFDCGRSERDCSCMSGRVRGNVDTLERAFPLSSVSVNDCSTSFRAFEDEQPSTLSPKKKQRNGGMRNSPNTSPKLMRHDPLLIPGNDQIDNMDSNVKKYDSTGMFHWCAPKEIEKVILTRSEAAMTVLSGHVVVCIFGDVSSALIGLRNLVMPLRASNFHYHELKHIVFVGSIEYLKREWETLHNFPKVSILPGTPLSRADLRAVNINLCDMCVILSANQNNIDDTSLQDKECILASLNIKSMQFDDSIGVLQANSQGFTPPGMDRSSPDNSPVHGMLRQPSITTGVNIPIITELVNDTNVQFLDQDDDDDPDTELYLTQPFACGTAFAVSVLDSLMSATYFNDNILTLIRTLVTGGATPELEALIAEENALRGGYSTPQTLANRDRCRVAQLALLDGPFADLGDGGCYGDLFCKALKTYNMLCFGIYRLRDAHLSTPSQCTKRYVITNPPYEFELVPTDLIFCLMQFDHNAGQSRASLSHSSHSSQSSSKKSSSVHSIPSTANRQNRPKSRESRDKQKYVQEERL
# Method: HEK-293 cell line expressing functional alpha subunits of BK channels were passaged at a confluence of 50 to 80%. Cells were seeded into 35 mm sterile culture dishes containing 2 mL culture complete medium. Cells were cultivated at a density that enables single cells (without visible connections to neighbouring cells) to be measured.
# Cells were incubated at 37° C. in a humidified atmosphere with 5% CO2 (relative humidity about 95%). […]
# The 35 mm culture dishes upon which cells were seeded at a density allowing single cells to be recorded were placed on the dish holder of the microscope and continuously perfused (at approximately 1 mL/min) with the bath solution described. […]
# Values (in pA/nA) of the current amplitudes were generated for each voltage step. The recorded current amplitudes at the steady state level of current modulation (+50 mV) were compared to those from control conditions measured in the pre-treatment phase of the same cell with SigmaPlot. The amount of current modulation was calculated as percentage of control. Data from at least 2 individual experiments were collected and the corresponding mean values and standard errors calculated.
# plasma proteins = details: cited from earlier work
SMILES,Cmax [1],Mean stimulation of BK channel activity at +50 mV [2] [%],Covalent binding of metabolic degradation product to plasma proteins (plasma proteins)
"COc1ccc(Cl)cc1[C@]1(F)C(=O)Nc2cc(C(F)(F)F)ccc21 [BMS-204352, (3S)-(+)-(5-chloro-2-methoxyphenyl)-1,3-dihydro-3-fluoro-6-(trifluoromethyl)-2H-indol-2-one]",about 130 ng/mL,216.59,gives rise to a metabolic degradation product that covalently binds to plasma proteins
"COc1ccc(Cl)cc1C1(C)C(=O)Nc2cc(C(F)(F)F)ccc21 (stereo not shown) [Example 1, 3-(5-chloro-2-methoxyphenyl)-3-methyl-6-(trifluoromethyl)indolin-2-one]",–,204.09,–
